The target of assay [1] is T1, CA14 (anchor binder nanobody).
T1 construct: nanobody CA14, tag-free; CA14 alone in ITC
Put plainly: ITC; […] Å crystal structure of the CA14-CBD-DB21 ternary complex. It is filed as binding. A general note: Isothermal titration calorimetry measures the heat released or taken up as one component is titrated into another.

Assay [2] deals with T2, TIR1 (Arabidopsis thaliana, UniProt Q570C0).
T2 construct: TIR1-ASK1 co-expressed complex; with ASK1
Kind of assay: ITC; BLI and AlphaScreen with IAA7 degron. Type of assay: binding.

SMILES strings stand for the structures. pKd: −log10 of the molar value.

One may read the pKd as the negative decadic logarithm of the Kd, by convention in mol/L.

T2 sequence (Q39255 whole entry): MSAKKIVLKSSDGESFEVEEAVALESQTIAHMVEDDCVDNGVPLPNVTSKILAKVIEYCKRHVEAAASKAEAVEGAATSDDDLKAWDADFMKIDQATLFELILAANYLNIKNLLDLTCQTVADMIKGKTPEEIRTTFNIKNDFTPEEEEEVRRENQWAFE
T2 sequence (Q570C0 whole entry): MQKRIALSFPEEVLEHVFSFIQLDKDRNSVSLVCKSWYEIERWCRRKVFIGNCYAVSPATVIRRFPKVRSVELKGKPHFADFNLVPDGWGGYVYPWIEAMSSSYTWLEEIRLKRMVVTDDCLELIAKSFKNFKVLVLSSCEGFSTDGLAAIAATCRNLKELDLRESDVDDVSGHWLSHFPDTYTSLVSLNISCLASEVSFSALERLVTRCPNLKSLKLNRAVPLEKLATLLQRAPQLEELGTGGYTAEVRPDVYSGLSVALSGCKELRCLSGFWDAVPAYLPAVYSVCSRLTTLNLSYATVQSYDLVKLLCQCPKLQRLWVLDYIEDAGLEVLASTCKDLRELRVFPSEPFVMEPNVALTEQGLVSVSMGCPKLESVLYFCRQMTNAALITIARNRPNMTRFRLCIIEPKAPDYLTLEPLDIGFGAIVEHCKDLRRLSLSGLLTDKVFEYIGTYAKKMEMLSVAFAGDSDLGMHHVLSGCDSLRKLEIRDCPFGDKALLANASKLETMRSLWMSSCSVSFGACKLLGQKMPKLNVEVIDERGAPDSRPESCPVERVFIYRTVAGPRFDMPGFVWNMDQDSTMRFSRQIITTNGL

For the molecule `C=C(C)[C@@H]1CCC(C)=C[C@H]1c1c(O)cc(CCCCC)cc1O` [CBD, cannabidiol], the negative-log Kd (pKd) in assay [1] is 5.66. `O=C(O)Cc1c[nH]c2ccccc12` [auxin] showed a pKd in assay [2] of 4.87.

Values taken from paper PMC8831599, “Defining molecular glues with a dual-nanobody cannabidiol sensor” (Nature Communications, 2022).
